Test results taken from patent publication US20080207641A1 (Synta Pharmaceuticals Corp., priority 2006, published 2008).
Converted amounts (≈) assume the structure as drawn. Like-named read-outs stand apart in the source and are kept apart here.

Legend:
IL-2 production = experiment: Inhibition of IL-2 production in PHA-activated Jurkat cells (ELISA); format: cell-based; settings: Homo sapiens, 20 h, PHA 2.5 μg/mL, 20 hours at 37° C., IL-2 ELISA
Protocol: Jurkat cells were placed in a 96 well plate (0.5 million cells per well in 1% FBS medium) then a test compound of this invention was added at different concentrations. After 10 minutes, the cells were activated with PHA (final concentration 2.5 μg/mL) and incubated for 20 hours at 37° C. under CO2. The final volume was 200 μL. Following incubation, the cells were centrifuged and the supernatants collected and stored at −70° C. prior to assaying for IL-2 production. A commercial ELISA kit (IL-2 Eli-pair, Diaclone Research, Besancon, France) was used to detect production of IL-2, from which dose response curves were obtained. The IC50 value was calculated as the concentration at which 50% of maximum IL-2 production after stimulation was inhibited versus a non-stimulation control.

[1] = Solubility in simulated gastric fluids; format: physicochemical
Source text: Solubility in Simulated Gastric Fluids

| IC50 (IL-2 production) | solubility ([1]; simulated gastric fluid) | solubility [1] | Structure (SMILES) |
| --- | --- | --- | --- |
| 75 to 150 nM |  |  | O=C(Nc1ccc(-c2cc(-c3nccs3)ccc2Cl)cc1)c1c(O)cccc1F [Compound 18, N-(2′-chloro-5′-(thiazol-2-yl)biphenyl-4-yl)-2-fluoro-6-hydroxybenzamide] |
| 150 to 1000 nM | 50 µM (≈ 20.5 µg/mL) |  | CC1=C(c2ccc(NC(=O)c3c(O)cccc3F)cc2)CN(c2nccs2)CC1 [Compound 13, 2-fluoro-6-hydroxy-N-(4-(4-methyl-1-(thiazol-2-yl)-1,2,5,6-tetrahydropyridin-3-yl)phenyl)benzamide] |
| ≤ 35 nM |  | 150 µM (≈ 56.4 µg/mL) | CCC(Cl)C(=O)Nc1ccc(C2=C(C)CCN(c3nccs3)C2)cc1 (centres unmarked) [Compound 15, 2-chloro-N-(4-(4-methyl-1-(thiazol-2-yl)-1,2,5,6-tetrahydropyridin-3-yl)phenyl)butanamide] |
| 75 to 150 nM |  |  | Cc1cncnc1C(=O)Nc1ccc(C2=C(C=O)CCN(c3nccs3)C2)cc1 [Compound 1, N-(4-(4-formyl-1-(thiazol-2-yl)-1,2,5,6-tetrahydropyridin-3-yl)phenyl)-5-methylpyrimidine-4-carboxamide] |
| 75 to 150 nM | 50 µM (≈ 22.2 µg/mL) |  | CC1=C(c2ccc(NC(=O)c3c(Cl)cccc3Cl)cc2)CN(c2nccs2)CC1 [Compound 10, 2,6-dichloro-N-(4-(4-methyl-1-(thiazol-2-yl)-1,2,5,6-tetrahydropyridin-3-yl)phenyl)benzamide] |
| ≤ 35 nM |  | 150 µM (≈ 61.7 µg/mL) | CC1=C(c2ccc(NC(=O)c3ccc(F)cc3F)cc2)CN(c2nccs2)CC1 [Compound 16, 2,4-difluoro-N-(4-(4-methyl-1-(thiazol-2-yl)-1,2,5,6-tetrahydropyridin-3-yl)phenyl)benzamide] |
| 75 to 150 nM |  |  | CC1=C(c2ccc(NC(=O)c3c(F)cccc3C(F)(F)F)cc2)CN(c2nccs2)CC1 [Compound 8, 2-fluoro-N-(4-(4-methyl-1-(thiazol-2-yl)-1,2,5,6-tetrahydropyridin-3-yl)phenyl)-6-(trifluoromethyl)benzamide] |
| ≤ 35 nM | 50 µM (≈ 20.6 µg/mL) |  | CC1=C(c2ccc(NC(=O)c3c(F)cccc3F)nc2)CN(c2nnn(C)n2)CC1 [Compound 6, 2,6-difluoro-N-(5-(4-methyl-1-(2-methyl-2H-tetrazol-5-yl)-1,2,5,6-tetrahydropyridin-3-yl)pyridin-2-yl)benzamide] |
| ≤ 35 nM |  | 150 µM (≈ 64.5 µg/mL) | CC1=C(c2cnc(NC(=O)c3c(F)cccc3Cl)cn2)CN(c2nccs2)CC1 [Compound 20, 2-chloro-6-fluoro-N-(5-(4-methyl-1-(thiazol-2-yl)-1,2,5,6-tetrahydropyridin-3-yl)pyrazin-2-yl)benzamide] |
| ≤ 35 nM | 50 µM (≈ 19.7 µg/mL) |  | CC1=C(c2ccc(NC(=O)c3ccccc3F)cc2)CN(c2nccs2)CC1 [Compound 12, 2-fluoro-N-(4-(4-methyl-1-(thiazol-2-yl)-1,2,5,6-tetrahydropyridin-3-yl)phenyl)benzamide] |
| > 1000 nM |  |  | CC1=C(c2cnc(NC(=O)c3c(F)cccc3F)cn2)CN(c2nnnn2C)CC1 [Compound 3, 2,6-difluoro-N-(5-(4-methyl-1-(1-methyl-1H-tetrazol-5-yl)-1,2,5,6-tetrahydropyridin-3-yl)pyrazin-2-yl)benzamide] |
| ≤ 35 nM | 100 µM (≈ 43.3 µg/mL) |  | O=C(Nc1ccc(C2=C(Cl)CCN(c3nccs3)C2)cn1)c1c(F)cccc1F [Compound 26, N-(5-(4-chloro-1-(thiazol-2-yl)-1,2,5,6-tetrahydropyridin-3-yl)pyridin-2-yl)-2,6-difluorobenzamide] |
| ≤ 35 nM | 50 µM (≈ 19.9 µg/mL) |  | CC1=C(c2ccc(NCc3c(F)cccc3F)cc2)CN(c2nccs2)CC1 [Compound 5, N-(2,6-difluorobenzyl)-4-(4-methyl-1-(thiazol-2-yl)-1,2,5,6-tetrahydropyridin-3-yl)aniline] |
| 35 to 75 nM | 100 µM |  | CC1=C(c2ccc(NCc3c(F)cccc3F)nc2)CN(c2nccs2)CC1.Cl.Cl [Compound 7, N-(2,6-difluorobenzyl)-5-(4-methyl-1-(thiazol-2-yl)-1,2,5,6-tetrahydropyridin-3-yl)pyridin-2-amine dihydrochloride] |
|  | 50 µM (≈ 17.7 µg/mL) |  | CC(C)=CC(=O)Nc1ccc(C2=C(C)CCN(c3nnn(C)n3)C2)cn1 [Compound 28, 3-methyl-N-(5-(4-methyl-1-(2-methyl-2H-tetrazol-5-yl)-1,2,5,6-tetrahydropyridin-3-yl)pyridin-2-yl)but-2-enamide] |
| 75 to 150 nM |  | 150 µM (≈ 59.2 µg/mL) | CC1=C(c2cnc(NC(=O)c3ccccc3F)cn2)CN(c2nnn(C)n2)CC1 [Compound 33, 2-fluoro-N-(5-(4-methyl-1-(2-methyl-2H-tetrazol-5-yl)-1,2,5,6-tetrahydropyridin-3-yl)pyrazin-2-yl)benzamide] |
| > 1000 nM | 25 µM (≈ 10.7 µg/mL) |  | CC1=C(c2ccc(NC(=O)c3c(F)cccc3Cl)nc2)CN(c2nnn(C)n2)CC1 [Compound 23, 2-chloro-6-fluoro-N-(5-(4-methyl-1-(2-methyl-2H-tetrazol-5-yl)-1,2,5,6-tetrahydropyridin-3-yl)pyridin-2-yl)benzamide] |

| IC50 (IL-2 production) | solubility ([1]; simulated gastric fluid) | solubility [1] | Structure (SMILES) |
| --- | --- | --- | --- |
| 75 to 150 nM | 50 µM (≈ 20.6 µg/mL) |  | CC1=C(c2cnc(NC(=O)c3ccc(F)cc3F)cn2)CN(c2nnn(C)n2)CC1 [Compound 24, 2,4-difluoro-N-(5-(4-methyl-1-(2-methyl-2H-tetrazol-5-yl)-1,2,5,6-tetrahydropyridin-3-yl)pyrazin-2-yl)benzamide] |
|  |  | 150 µM (≈ 61.7 µg/mL) | CC1=C(c2ccc(NC(=O)c3ccc(F)cc3F)nc2)CN(c2nnn(C)n2)CC1 [Compound 21, 2,4-difluoro-N-(5-(4-methyl-1-(2-methyl-2H-tetrazol-5-yl)-1,2,5,6-tetrahydropyridin-3-yl)pyridin-2-yl)benzamide] |
| 35 to 75 nM | 50 µM (≈ 19.7 µg/mL) |  | CC1=C(c2ccc(NC(=O)c3ccccc3F)nc2)CN(c2nnn(C)n2)CC1 [Compound 29, 2-fluoro-N-(5-(4-methyl-1-(2-methyl-2H-tetrazol-5-yl)-1,2,5,6-tetrahydropyridin-3-yl)pyridin-2-yl)benzamide] |
| 35 to 75 nM | 50 µM (≈ 20.6 µg/mL) |  | CC1=C(c2cnc(NC(=O)c3c(F)cccc3F)cn2)CN(c2nnn(C)n2)CC1 [Compound 2, 2,6-difluoro-N-(5-(4-methyl-1-(2-methyl-2H-tetrazol-5-yl)-1,2,5,6-tetrahydropyridin-3-yl)pyrazin-2-yl)benzamide] |
|  |  | 150 µM | CC1=C(c2ccc(NC(=O)c3ccc(F)cc3F)cc2)CN(c2nccs2)CC1.Cl [Compound 19, 2,4-difluoro-N-(4-(4-methyl-1-(thiazol-2-yl)-1,2,5,6-tetrahydropyridin-3-yl)phenyl)benzamide hydrochloride] |
| 35 to 75 nM | 25 µM (≈ 9.89 µg/mL) |  | CC1=C(c2cnc(NC(=O)c3ccccc3F)cn2)CN(c2nccs2)CC1 [Compound 31, 2-fluoro-N-(5-(4-methyl-1-(thiazol-2-yl)-1,2,5,6-tetrahydropyridin-3-yl)pyrazin-2-yl)benzamide] |
| > 1000 nM |  |  | CC1=C(c2ccc(NC(=O)c3c(F)cccc3F)nc2)CN(c2nccn2C)CC1 [Compound 22, 2,6-difluoro-N-(5-(4-methyl-1-(1-methyl-1H-imidazol-2-yl)-1,2,5,6-tetrahydropyridin-3-yl)pyridin-2-yl)benzamide] |
| 35 to 75 nM |  | 150 µM (≈ 59.6 µg/mL) | CC1=C(c2cnc(NC(=O)c3c(F)cccc3F)cn2)CN(c2ncco2)CC1 [Compound 30, 2,6-difluoro-N-(5-(4-methyl-1-(oxazol-2-yl)-1,2,5,6-tetrahydropyridin-3-yl)pyrazin-2-yl)benzamide] |
| ≤ 35 nM | 50 µM (≈ 21.6 µg/mL) |  | Cn1nnc(N2CCC(Cl)=C(c3ccc(NC(=O)c4c(F)cccc4F)nc3)C2)n1 [Compound 25, N-(5-(4-chloro-1-(2-methyl-2H-tetrazol-5-yl)-1,2,5,6-tetrahydropyridin-3-yl)pyridin-2-yl)-2,6-difluorobenzamide] |
| 75 to 150 nM | 50 µM (≈ 21.6 µg/mL) |  | O=C(Nc1ccc(C2=C(Cl)CCN(c3nccs3)C2)cn1)c1ccc(F)cc1F [Compound 27] |
| 35 to 75 nM |  |  | CC1=C(c2ccc(NC(=O)c3ccccc3C(F)(F)F)cc2)CN(c2nccs2)CC1 [Compound 9, N-(4-(4-methyl-1-(thiazol-2-yl)-1,2,5,6-tetrahydropyridin-3-yl)phenyl)-2-(trifluoromethyl)benzamide] |
| ≤ 35 nM | 50 µM (≈ 19.8 µg/mL) |  | CC1=C(c2cnc(NC(=O)c3ccncc3F)cn2)CN(c2nccs2)CC1 [Compound 4, 3-fluoro-N-(5-(4-methyl-1-(thiazol-2-yl)-1,2,5,6-tetrahydropyridin-3-yl)pyrazin-2-yl)isonicotinamide] |
|  | 25 µM (≈ 10.7 µg/mL) |  | CC1=C(c2cnc(NC(=O)c3c(F)cccc3Cl)cn2)CN(c2nnn(C)n2)CC1 [Compound 35, 2-chloro-6-fluoro-N-(5-(4-methyl-1-(2-methyl-2H-tetrazol-5-yl)-1,2,5,6-tetrahydropyridin-3-yl)pyrazin-2-yl)benzamide] |
|  | 25 µM |  | CC1=C(c2cnc(NC(=O)c3c(F)cncc3F)cn2)CN(c2nccs2)CC1.Cl [Compound 34, 3,5-difluoro-N-(5-(4-methyl-1-(thiazol-2-yl)-1,2,5,6-tetrahydropyridin-3-yl)pyrazin-2-yl)isonicotinamide hydrochloride] |
| 150 to 1000 nM |  |  | CC1=C(c2ccc(NC(=O)C3c4ccccc4-c4ccccc43)cc2)CN(c2nccs2)CC1 [Compound 17, N-(4-(4-methyl-1-(thiazol-2-yl)-1,2,5,6-tetrahydropyridin-3-yl)phenyl)-9H-fluorene-9-carboxamide] |
| 150 to 1000 nM |  |  | CSc1ncccc1C(=O)Nc1ccc(C2=C(C)CCN(c3nccs3)C2)cc1 [Compound 14, N-(4-(4-methyl-1-(thiazol-2-yl)-1,2,5,6-tetrahydropyridin-3-yl)phenyl)-2-(methylthio)nicotinamide] |
